Each structure is given as a SMILES string.

The target of this assay is T1, recombinant full-length WRN protein (1-1432) (Homo sapiens, UniProt Q14191).
T1 construct: recombinant full-length WRN protein (1-1432)
T1 sequence (Q14191 whole entry): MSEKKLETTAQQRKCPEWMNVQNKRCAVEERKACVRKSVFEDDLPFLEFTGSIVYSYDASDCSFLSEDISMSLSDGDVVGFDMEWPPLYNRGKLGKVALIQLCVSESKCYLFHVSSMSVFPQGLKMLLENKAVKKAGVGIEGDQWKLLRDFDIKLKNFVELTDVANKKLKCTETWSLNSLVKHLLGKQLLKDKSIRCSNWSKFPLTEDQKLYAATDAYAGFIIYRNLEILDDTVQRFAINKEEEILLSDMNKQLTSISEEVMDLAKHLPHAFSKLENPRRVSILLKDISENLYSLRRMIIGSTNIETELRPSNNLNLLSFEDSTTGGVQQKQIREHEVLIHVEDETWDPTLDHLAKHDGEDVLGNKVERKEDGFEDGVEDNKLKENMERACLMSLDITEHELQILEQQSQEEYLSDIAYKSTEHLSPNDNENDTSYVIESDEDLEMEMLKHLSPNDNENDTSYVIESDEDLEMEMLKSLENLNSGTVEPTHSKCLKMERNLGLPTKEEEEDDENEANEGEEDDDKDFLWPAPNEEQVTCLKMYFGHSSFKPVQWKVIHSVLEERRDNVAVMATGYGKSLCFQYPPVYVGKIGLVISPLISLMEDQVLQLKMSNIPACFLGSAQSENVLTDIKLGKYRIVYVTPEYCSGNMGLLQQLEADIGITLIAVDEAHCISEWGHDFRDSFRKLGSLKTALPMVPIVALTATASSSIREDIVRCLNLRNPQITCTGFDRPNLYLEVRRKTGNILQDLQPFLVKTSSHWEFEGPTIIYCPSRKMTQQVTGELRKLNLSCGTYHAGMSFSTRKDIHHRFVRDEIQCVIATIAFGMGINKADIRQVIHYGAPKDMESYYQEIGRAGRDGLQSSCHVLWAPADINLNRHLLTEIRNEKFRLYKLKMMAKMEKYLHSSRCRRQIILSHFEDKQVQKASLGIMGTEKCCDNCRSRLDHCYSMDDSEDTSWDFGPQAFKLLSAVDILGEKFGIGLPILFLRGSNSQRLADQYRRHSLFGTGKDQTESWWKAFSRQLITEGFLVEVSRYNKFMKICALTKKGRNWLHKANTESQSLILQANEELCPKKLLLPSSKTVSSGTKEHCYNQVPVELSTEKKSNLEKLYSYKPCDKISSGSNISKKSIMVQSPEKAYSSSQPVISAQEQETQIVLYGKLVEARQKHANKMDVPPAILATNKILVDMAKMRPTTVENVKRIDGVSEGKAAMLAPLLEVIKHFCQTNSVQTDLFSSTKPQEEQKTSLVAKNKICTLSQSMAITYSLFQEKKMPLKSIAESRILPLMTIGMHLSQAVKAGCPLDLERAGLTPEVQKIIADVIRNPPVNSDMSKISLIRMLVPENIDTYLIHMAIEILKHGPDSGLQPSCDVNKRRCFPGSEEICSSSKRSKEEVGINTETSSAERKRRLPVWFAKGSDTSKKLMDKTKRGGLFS
Kind of assay: WRN unwinding activity, fluorogenic 384-well assay (Example A). The format is biochemical. To be noted: WRN unwinding activity, 4 hr; Table 2; read-out: 4 hr UNW pIC50 (converted). An outline of the steps: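 Read-out is end-point unwinding of a fluorophore/quencher duplex (ex 525, em 598 nm) after 60 min with 200 μM ATP and 12 nM DNA (2× stocks), EDTA stop. Compound first sat 4 h with 200 pM WRN (2× stock) in pH 8.0 Tris buffer; four-parameter fit gives pIC50.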
On to `O=C(O)[C@@H]1[C@@H](c2ccc(-c3cccc(COC4CCOCC4)c3)cc2)CCC[C@H]1C(=O)Nc1ccc(C(F)(F)F)cc1F` [Example 21, (1R,2R,6S)-2-((2-fluoro-4-(trifluoromethyl)phenyl)carbamoyl)-6-(3′-(((tetrahydro-2H-pyran-4-yl)oxy)methyl)-[1,1′-biphenyl]-4-yl) cyclohexane-1-carboxylic acid], for which the IC50 was 7940 nM.

As for `Cc1cn2nc(-c3ccc([C@H]4CCC[C@@H](C(=O)Nc5ccc(C(F)(F)F)cc5F)[C@@H]4C(=O)O)cc3)ccc2n1` [Example 22, (1R,2R,6S)-2-((2-fluoro-4-(trifluoromethyl)phenyl)carbamoyl)-6-(4-(2-methylimidazo[1,2-b]pyridazin-6-yl)phenyl)cyclohexane-1-carboxylic acid], the IC50 is 1000 nM.

As to `O=C(O)[C@@H]1[C@@H](c2ccc(-c3cnn(CC4CC4)c3)cc2)CCC[C@H]1C(=O)Nc1ccc(C(F)(F)F)cc1F` [Example 23, (1R,2S,6R)-2-(4-(1-(cyclopropylmethyl)-1H-pyrazol-4-yl)phenyl)-6-((2-fluoro-4-(trifluoromethyl)phenyl)carbamoyl)cyclohexane-1-carboxylic acid], the IC50 is 126 nM.

Take `COC(=O)c1cncc(-c2ccc([C@H]3CCC[C@@H](C(=O)Nc4ccc(C(F)(F)F)cc4F)[C@@H]3C(=O)O)cc2)c1` [Example 26, (1R,2R,6S)-2-((2-fluoro-4-(trifluoromethyl)phenyl)carbamoyl)-6-(4-(5-(methoxycarbonyl)pyridin-3-yl)phenyl)cyclohexane-1-carboxylic acid]: the IC50 was 10000 nM.

In the case of `Cc1nsc(-c2ccc([C@H]3CCC[C@@H](C(=O)Nc4ccc(C(F)(F)F)cc4F)[C@@H]3C(=O)O)cc2)c1O` [Example 28, (1R,2R,6S)-2-((2-fluoro-4-(trifluoromethyl)phenyl)carbamoyl)-6-(4-(4-hydroxy-3-methylisothiazol-5-yl)phenyl)cyclohexane-1-carboxylic acid], the IC50 was 31.6 nM.

For `O=C(O)[C@@H]1[C@@H](c2ccc(-c3ccc4nnnn4n3)cc2)CCC[C@H]1C(=O)Nc1ccc(C(F)(F)F)cc1F` [Example 29, (1R,2R,6S)-2-((2-fluoro-4-(trifluoromethyl)phenyl)carbamoyl)-6-(4-(tetrazolo[1,5-b]pyridazin-6-yl)phenyl) cyclohexane-1-carboxylic acid], the IC50 was 3980 nM.

On to `O=C(O)[C@@H]1[C@@H](c2ccc(-c3ccc4nncn4n3)cc2)CCC[C@H]1C(=O)Nc1ccc(C(F)(F)F)cc1F` [Example 30, (1R,2S,6R)-2-(4-([1,2,4]triazolo[4,3-b]pyridazin-6-yl)phenyl)-6-((2-fluoro-4-(trifluoromethyl)phenyl)carbamoyl)cyclohe xane-1-carboxylic acid], for which the IC50 was 6310 nM.

Turning to `COC(=O)c1sccc1-c1ccc([C@H]2CCC[C@@H](C(=O)Nc3ccc(C(F)(F)F)cc3F)[C@@H]2C(=O)O)cc1` [Example 33, (1R,2R,6S)-2-((2-fluoro-4-(trifluoromethyl)phenyl)carbamoyl)-6-(4-(2-(methoxycarbonyl)thiophen-3-yl)phenyl)cyclohexane-1-carboxylic acid], the IC50 is 126 nM.

`O=C(O)[C@@H]1[C@@H](c2ccc(-c3ncnc4sccc34)cc2)CCC[C@H]1C(=O)Nc1ccc(C(F)(F)F)cc1F` [Example 34, (1R,2R,6S)-2-((2-fluoro-4-(trifluoromethyl)phenyl)carbamoyl)-6-(4-(thieno[2,3-d]pyrimidin-4-yl)phenyl)cyclohexane-1-carboxylic acid]: the IC50 is 2510 nM.

Take `O=C(O)[C@@H]1[C@@H](c2ccc(-c3cccnn3)cc2)CCC[C@H]1C(=O)Nc1ccc(C(F)(F)F)cc1F` [Example 38, (1R,2R,6S)-2-((2-fluoro-4-(trifluoromethyl)phenyl)carbamoyl)-6-(4-(pyridazin-3-yl)phenyl)cyclohexane-1-carboxylic acid]: the IC50 was 1.58 nM.

As to `COC(=O)N1CCc2c(cnnc2-c2ccc([C@H]3CCC[C@@H](C(=O)Nc4ccc(C(F)(F)F)cc4F)[C@@H]3C(=O)O)cc2)C1` [Example 40, (1R,2R,6S)-2-((2-fluoro-4-(trifluoromethyl)phenyl)carbamoyl)-6-(4-(6-(methoxycarbonyl)-5,6,7,8-tetrahydropyrido[3,4-d]pyridazin-1-yl)phenyl)cyclohexane-1-carboxylic acid], the IC50 is 10000 nM.

For `COc1cscc1-c1ccc([C@H]2CCC[C@@H](C(=O)Nc3ccc(C(F)(F)F)cc3F)[C@@H]2C(=O)O)cc1` [Example 42, (1R,2R,6S)-2-((2-fluoro-4-(trifluoromethyl)phenyl)carbamoyl)-6-(4-(4-methoxythiophen-3-yl)phenyl) cyclohexane-1-carboxylic acid], the IC50 is 1000 nM.

`Cc1cscc1-c1ccc([C@H]2CCC[C@@H](C(=O)Nc3ccc(C(F)(F)F)cc3F)[C@@H]2C(=O)O)cc1` [Example 43, (1R,2R,6S)-2-((2-fluoro-4-(trifluoromethyl)phenyl)carbamoyl)-6-(4-(4-methylthiophen-3-yl)phenyl)cyclohexane-1-carboxylic acid]: the IC50 was 10 nM.

Take `O=C(O)[C@@H]1[C@@H](c2ccc(-c3ccnc4ccsc34)cc2)CCC[C@H]1C(=O)Nc1ccc(C(F)(F)F)cc1F` [Example 44, (1R,2R,6S)-2-((2-fluoro-4-(trifluoromethyl)phenyl)carbamoyl)-6-(4-(thieno[3,2-b]pyridin-7-yl)phenyl)cyclohexane-1-carboxylic acid]: the IC50 was 6310 nM.

Turning to `O=C(O)[C@@H]1[C@@H](c2ccc(-c3nncc4ccoc34)cc2)CCC[C@H]1C(=O)Nc1ccc(C(F)(F)F)cc1F` [Example 45, (1R,2R,6S)-2-((2-fluoro-4-(trifluoromethyl)phenyl)carbamoyl)-6-(4-(furo[2,3-d]pyridazin-7-yl)phenyl)cyclohexane-1-carboxylic acid], the IC50 was 126 nM.

Consider `Cc1sccc1-c1ccc([C@H]2CCC[C@@H](C(=O)Nc3ccc(C(F)(F)F)cc3F)[C@@H]2C(=O)O)cc1` [Example 46, (1R,2R,6S)-2-((2-fluoro-4-(trifluoromethyl)phenyl)carbamoyl)-6-(4-(2-methylthiophen-3-yl)phenyl)cyclohexane-1-carboxylic acid], for which the IC50 was 31.6 nM.

For the compound `Cc1cc(-c2ccc([C@H]3CCC[C@@H](C(=O)Nc4ccc(C(F)(F)F)cc4F)[C@@H]3C(=O)O)cc2)cs1` [Example 47, (1R,2R,6S)-2-((2-fluoro-4-(trifluoromethyl)phenyl)carbamoyl)-6-(4-(5-methylthiophen-3-yl)phenyl)cyclohexane-1-carboxylic acid], the IC50 is 10 nM.

With `O=C(O)[C@@H]1[C@@H](c2ccc(-c3csnc3CO)cc2)CCC[C@H]1C(=O)Nc1ccc(C(F)(F)F)cc1F` [Example 50, (1R,2R,6S)-2-((2-fluoro-4-(trifluoromethyl)phenyl)carbamoyl)-6-(4-(3-(hydroxymethyl)isothiazol-4-yl)phenyl)cyclohexane-1-carboxylic acid], the IC50 was 7.94 nM.

As to `O=C(O)[C@@H]1[C@@H](c2ccc(-c3cnsc3CO)cc2)CCC[C@H]1C(=O)Nc1ccc(C(F)(F)F)cc1F` [Example 51, (1R,2R,6S)-2-((2-fluoro-4-(trifluoromethyl)phenyl)carbamoyl)-6-(4-(5-(hydroxymethyl)isothiazol-4-yl)phenyl) cyclohexane-1-carboxylic acid], the IC50 is 10 nM.

Take `O=C(O)[C@@H]1[C@@H](c2ccc(-c3ncsc3CO)cc2)CCC[C@H]1C(=O)Nc1ccc(C(F)(F)F)cc1F` [Example 52, (1R,2R,6S)-2-((2-fluoro-4-(trifluoromethyl)phenyl)carbamoyl)-6-(4-(5-(hydroxymethyl)thiazol-4-yl)phenyl)cyclohexane-1-carboxylic acid]: the IC50 was 794 nM.

Consider `O=C(O)[C@@H]1[C@@H](c2ccc(C3=COCCC3)cc2)CCC[C@H]1C(=O)Nc1ccc(C(F)(F)F)cc1F` [Example 56, (1R,2S,6R)—2-(4-(3,4-dihydro-2H-pyran-5-yl)phenyl)-6-((2-fluoro-4-(trifluoromethyl)phenyl)carbamoyl)cyclohexane-1-carboxylic acid], for which the IC50 was 1.58 nM.

With `O=C(O)[C@@H]1[C@@H](c2ccc(C3=CCOC3)cc2)CCC[C@H]1C(=O)Nc1ccc(C(F)(F)F)cc1F` [Example 57, (1R,2S,6R)-2-(4-(2,5-dihydrofuran-3-yl)phenyl)-6-((2-fluoro-4-(trifluoromethyl)phenyl)carbamoyl) cyclohexane-1-carboxylic acid], the IC50 was 100 nM.

As to `O=C(O)[C@@H]1[C@@H](c2ccc(CCN3CCNC3=O)cc2)CCC[C@H]1C(=O)Nc1ccc(C(F)(F)F)cc1F` [Example 60, (1R,2R,6S)-2-((2-fluoro-4-(trifluoromethyl)phenyl)carbamoyl)-6-(4-(2-(2-oxoimidazolidin-1-yl)ethyl)phenyl)cyclohexane-1-carboxylic acid], the IC50 is 2510 nM.

In the case of `O=C(O)[C@@H]1[C@@H](c2ccc(C3CCCCC3)cc2)CCC[C@H]1C(=O)Nc1ccc(C(F)(F)F)cc1F` [Example 62, (1R,2S,6R)-2-(4-cyclohexylphenyl)-6-((2-fluoro-4-(trifluoromethyl)phenyl)carbamoyl)cyclohexane-1-carboxylic acid], the IC50 is 126 nM.

With `O=C(O)[C@@H]1[C@@H](c2ccc(C3COC3)cc2)CCC[C@H]1C(=O)Nc1ccc(C(F)(F)F)cc1F` [Example 63, (1R,2R,6S)-2-((2-fluoro-4-(trifluoromethyl)phenyl)carbamoyl)-6-(4-(oxetan-3-yl)phenyl)cyclohexane-1-carboxylic acid], the IC50 was 1580 nM.

As to `O=C(O)[C@@H]1[C@@H](c2ccc(CC3(CO)COC3)cc2)CCC[C@H]1C(=O)Nc1ccc(C(F)(F)F)cc1F` [Example 68, (1R,2R,6S)-2-((2-fluoro-4-(trifluoromethyl)phenyl)carbamoyl)-6-(4-((3-(hydroxymethyl)oxetan-3-yl)methyl)phenyl)cyclohexane-1-carboxylic acid], the IC50 is 1580 nM.

The record behind these values is patent US12662451B2, “Chemical compounds and uses thereof” (GLAXOSMITHKLINE INTELLECTUAL PROPERTY (NO.4) LIMITED, priority 2023, dated 2026).
